Measurements reported in ChEMBL document CHEMBL3817755, “Design, synthesis and biological evaluation of indazolepyrimidine based derivatives as anticancer agents with anti-angiogenic and antiproliferative activities” (Medchemcomm, 2016).

Experiments:
Type in all cases: functional
CCRF-CEM = assay: Growth inhibition of human CCRF-CEM cells at 10 uM after 48 hrs by SRB assay; conditions: read-out: GI
K562 = assay: Growth inhibition of human K562 cells at 10 uM after 48 hrs by SRB assay; conditions: K562, 48 h, read-out: GI
[1] = Growth inhibition of human MOLT4 cells at 10 uM after 48 hrs by SRB assay; conditions: MOLT-4, 48 h, read-out: GI
[2] = Growth inhibition of human RPMI8226 cells at 10 uM after 48 hrs by SRB assay; conditions: RPMI-8226, 48 h, read-out: GI
A549 = assay: Growth inhibition of human A549/ATCC cells at 10 uM after 48 hrs by SRB assay; conditions: A549, 48 h, read-out: GI
EKVX = assay: Growth inhibition of human EKVX cells at 10 uM after 48 hrs by SRB assay; conditions: read-out: GI
[3] = Growth inhibition of human HOP62 cells at 10 uM after 48 hrs by SRB assay; conditions: HOP-62, 48 h, read-out: GI
[4] = Growth inhibition of human HOP92 cells at 10 uM after 48 hrs by SRB assay; conditions: HOP-92, 48 h, read-out: GI
NCI-H226 = assay: Growth inhibition of human NCI-H226 cells at 10 uM after 48 hrs by SRB assay; conditions: NCI-H226, 48 h, read-out: GI
NCI-H23 = assay: Growth inhibition of human NCI-H23 cells at 10 uM after 48 hrs by SRB assay; conditions: NCI-H23, 48 h, read-out: GI
NCI-H522 = assay: Growth inhibition of human NCI-H522 cells at 10 uM after 48 hrs by SRB assay; conditions: NCI-H522, 48 h, read-out: GI
[5] = Growth inhibition of human COLO205 cells at 10 uM after 48 hrs by SRB assay; conditions: COLO 205, 48 h, read-out: GI
[6] = Growth inhibition of human HCC2998 cells at 10 uM after 48 hrs by SRB assay; conditions: HCC 2998, 48 h, read-out: GI
[7] = Growth inhibition of human HCT116 cells at 10 uM after 48 hrs by SRB assay; conditions: HCT-116, 48 h, read-out: GI
[8] = Growth inhibition of human HCT15 cells at 10 uM after 48 hrs by SRB assay; conditions: HCT-15, 48 h, read-out: GI
HT-29 = assay: Growth inhibition of human HT-29 cells at 10 uM after 48 hrs by SRB assay; conditions: HT-29, 48 h, read-out: GI
KM12 = assay: Growth inhibition of human KM12 cells at 10 uM after 48 hrs by SRB assay; conditions: KM12, 48 h, read-out: GI
[9] = Growth inhibition of human SF268 cells at 10 uM after 48 hrs by SRB assay; conditions: SF-268, 48 h, read-out: GI
[10] = Growth inhibition of human SF295 cells at 10 uM after 48 hrs by SRB assay; conditions: SF-295, 48 h, read-out: GI
[11] = Growth inhibition of human SNB75 cells at 10 uM after 48 hrs by SRB assay; conditions: SNB-75, 48 h, read-out: GI
U-251 = assay: Growth inhibition of human U251 cells at 10 uM after 48 hrs by SRB assay; conditions: U-251, 48 h, read-out: GI
Malme-3M = assay: Growth inhibition of human MALME-3M cells at 10 uM after 48 hrs by SRB assay; conditions: read-out: GI
M14 = assay: Growth inhibition of human M14 cells at 10 uM after 48 hrs by SRB assay; conditions: M14, 48 h, read-out: GI
MDA-MB-435 = assay: Growth inhibition of human MDA-MB-435 cells at 10 uM after 48 hrs by SRB assay; conditions: MDA-MB-435, 48 h, read-out: GI
SK-MEL-28 = assay: Growth inhibition of human SK-MEL-28 cells at 10 uM after 48 hrs by SRB assay; conditions: SK-MEL-28, 48 h, read-out: GI
[12] = Growth inhibition of human UACC62 cells at 10 uM after 48 hrs by SRB assay; conditions: UACC-62, 48 h, read-out: GI
[13] = Growth inhibition of human OVCAR3 cells at 10 uM after 48 hrs by SRB assay; conditions: OVCAR-3, 48 h, read-out: GI
[14] = Growth inhibition of human OVCAR4 cells at 10 uM after 48 hrs by SRB assay; conditions: OVCAR-4, 48 h, read-out: GI
[15] = Growth inhibition of human OVCAR5 cells at 10 uM after 48 hrs by SRB assay; conditions: OVCAR-5, 48 h, read-out: GI
[16] = Growth inhibition of human OVCAR8 cells at 10 uM after 48 hrs by SRB assay; conditions: OVCAR-8, 48 h, read-out: GI
[17] = Growth inhibition of human SKOV3 cells at 10 uM after 48 hrs by SRB assay; conditions: SK-OV-3, 48 h, read-out: GI
786-0 = assay: Growth inhibition of human 786-0 cells at 10 uM after 48 hrs by SRB assay; conditions: 786-0, 48 h, read-out: GI
[18] = Growth inhibition of human RXF393 cells at 10 uM after 48 hrs by SRB assay; conditions: RXF 393, 48 h, read-out: GI
SN12C = assay: Growth inhibition of human SN12C cells at 10 uM after 48 hrs by SRB assay; conditions: read-out: GI
[19] = Growth inhibition of human TK10 cells at 10 uM after 48 hrs by SRB assay; conditions: TK-10, 48 h, read-out: GI
[20] = Growth inhibition of human UO31 cells at 10 uM after 48 hrs by SRB assay; conditions: UO-31, 48 h, read-out: GI
[21] = Growth inhibition of human PC3 cells at 10 uM after 48 hrs by SRB assay; conditions: PC-3, 48 h, read-out: GI
MCF7 = assay: Growth inhibition of human MCF7 cells at 10 uM after 48 hrs by SRB assay; conditions: MCF7, 48 h, read-out: GI
MDA-MB-231 = assay: Growth inhibition of human MDA-MB-231 cells at 10 uM after 48 hrs by SRB assay; conditions: MDA-MB-231, 48 h, read-out: GI
[22] = Growth inhibition of human BT549 cells at 10 uM after 48 hrs by SRB assay; conditions: BT-549, 48 h, read-out: GI
T47D = assay: Growth inhibition of human T47D cells at 10 uM after 48 hrs by SRB assay; conditions: read-out: GI
MDA-MB-468 = assay: Growth inhibition of human MDA-MB-468 cells at 10 uM after 48 hrs by SRB assay; conditions: MDA-MB-468, 48 h, read-out: GI

COc1ccc(Nc2nccc(Nc3ccc4[nH]ncc4c3)n2)cc1
inhibition of growth at 10 µM (CCRF-CEM): 102%
inhibition of growth at 10 µM (K562): 95%
inhibition of growth at 10 µM [1]: 99%
inhibition of growth at 10 µM [2]: 97%
inhibition of growth at 10 µM (A549): 76%
inhibition of growth at 10 µM (EKVX): 49%
inhibition of growth at 10 µM [3]: 51%
inhibition of growth at 10 µM [4]: 101%
inhibition of growth at 10 µM (NCI-H226): 72%
inhibition of growth at 10 µM (NCI-H23): 60%
inhibition of growth at 10 µM (NCI-H522): 81%
inhibition of growth at 10 µM [5]: 74%
inhibition of growth at 10 µM [6]: 37%
inhibition of growth at 10 µM [7]: 81%
inhibition of growth at 10 µM [8]: 94%
inhibition of growth at 10 µM (HT-29): 88%
inhibition of growth at 10 µM (KM12): 90%
inhibition of growth at 10 µM [9]: 53%
inhibition of growth at 10 µM [10]: 52%
inhibition of growth at 10 µM [11]: 34%
inhibition of growth at 10 µM (U-251): 64%
inhibition of growth at 10 µM (Malme-3M): 24%
inhibition of growth at 10 µM (M14): 67%
inhibition of growth at 10 µM (MDA-MB-435): 65%
inhibition of growth at 10 µM (SK-MEL-28): 34%
inhibition of growth at 10 µM [12]: 61%
inhibition of growth at 10 µM [13]: 51%
inhibition of growth at 10 µM [14]: 67%
inhibition of growth at 10 µM [15]: 48%
inhibition of growth at 10 µM [16]: 91%
inhibition of growth at 10 µM [17]: 48%
inhibition of growth at 10 µM (786-0): 56%
inhibition of growth at 10 µM [18]: 68%
inhibition of growth at 10 µM (SN12C): 57%
inhibition of growth at 10 µM [19]: 81%
inhibition of growth at 10 µM [20]: 84%
inhibition of growth at 10 µM [21]: 87%
inhibition of growth at 10 µM (MCF7): 87%
inhibition of growth at 10 µM (MDA-MB-231): 51%
inhibition of growth at 10 µM [22]: 56%
inhibition of growth at 10 µM (T47D): 104%
inhibition of growth at 10 µM (MDA-MB-468): 56%

Clc1ccc(Nc2nccc(Nc3ccc4[nH]ncc4c3)n2)cc1
inhibition of growth at 10 µM (CCRF-CEM): 95%
inhibition of growth at 10 µM (K562): 108%
inhibition of growth at 10 µM [1]: 77%
inhibition of growth at 10 µM [2]: 82%
inhibition of growth at 10 µM (A549): 50%
inhibition of growth at 10 µM (EKVX): 33%
inhibition of growth at 10 µM [3]: 34%
inhibition of growth at 10 µM [4]: 101%
inhibition of growth at 10 µM (NCI-H226): 72%
inhibition of growth at 10 µM (NCI-H23): 54%
inhibition of growth at 10 µM (NCI-H522): 79%
inhibition of growth at 10 µM [5]: 58%
inhibition of growth at 10 µM [6]: 6%
inhibition of growth at 10 µM [7]: 61%
inhibition of growth at 10 µM [8]: 60%
inhibition of growth at 10 µM (HT-29): 83%
inhibition of growth at 10 µM (KM12): 91%
inhibition of growth at 10 µM [9]: 40%
inhibition of growth at 10 µM [10]: 29%
inhibition of growth at 10 µM [11]: 32%
inhibition of growth at 10 µM (U-251): 41%
inhibition of growth at 10 µM (Malme-3M): 12%
inhibition of growth at 10 µM (M14): 56%
inhibition of growth at 10 µM (MDA-MB-435): 44%
inhibition of growth at 10 µM (SK-MEL-28): 20%
inhibition of growth at 10 µM [12]: 66%
inhibition of growth at 10 µM [13]: 48%
inhibition of growth at 10 µM [14]: 51%
inhibition of growth at 10 µM [15]: 35%
inhibition of growth at 10 µM [16]: 78%
inhibition of growth at 10 µM [17]: 12%
inhibition of growth at 10 µM (786-0): 43%
inhibition of growth at 10 µM [18]: 65%
inhibition of growth at 10 µM (SN12C): 48%
inhibition of growth at 10 µM [19]: 38%
inhibition of growth at 10 µM [20]: 83%
inhibition of growth at 10 µM [21]: 75%
inhibition of growth at 10 µM (MCF7): 75%
inhibition of growth at 10 µM (MDA-MB-231): 31%
inhibition of growth at 10 µM [22]: 47%
inhibition of growth at 10 µM (T47D): 70%
inhibition of growth at 10 µM (MDA-MB-468): 66%
